# Results from ChEMBL document CHEMBL3885881, “DrugMatrix”.
# Species: Rattus norvegicus
# Assay: DrugMatrix - Regimen: Daily Repeat
# Format: toxicity, organism-based, Sprague-Dawley
# Parameters: regimen Daily Repeat, gender Male, age 6-8 weeks
# Settings: in vivo, sc, route subcutaneous, […]; for ABSOLUTE BASOPHIL / ABSOLUTE EOSINOPHIL / ABSOLUTE LYMPHOCYTE / ABSOLUTE MONOCYTE / ABSOLUTE SEGMENTED NEUTROPHIL / BASOPHIL / EOSINOPHIL / ERYTHROCYTE COUNT / HEMATOCRIT / HEMOGLOBIN / LEUKOCYTE COUNT / LYMPHOCYTE / MEAN CORPUSCULAR HEMOGLOBIN / MEAN CORPUSCULAR HEMOGLOBIN CONCENTRATION / MEAN CORPUSCULAR VOLUME / MONOCYTE / NEUTROPHIL / NUCLEATED RED BLOOD CELLS / PLATELET COUNT: tissue Blood; for ALANINE AMINOTRANSFERASE / ALBUMIN / ALKALINE PHOSPHATASE / ASPARTATE AMINOTRANSFERASE / BLOOD UREA NITROGEN / CARBON DIOXIDE / CHLORIDE / CHOLESTEROL / CREATINE PHOSPHOKINASE / CREATININE / GLUCOSE / LACTATE DEHYDROGENASE / LIPASE / PHOSPHORUS / POTASSIUM / SODIUM / TOTAL BILIRUBIN / TOTAL PROTEIN / URIC ACID: tissue Plasma
# [1] = 0.07 mg/kg, 72 h, dose level Low, time 3 day
# [2] = 0.07 mg/kg, 120 h, dose level Low, time 5 day
# [3] = 72 h, dose 2.5 mg/Kg, dose level High, time 3 day
# [4] = 120 h, dose 2.5 mg/Kg, dose level High, time 5 day
compound,measurement,setting,value
CC1(C)O[C@@H]2C[C@H]3[C@@H]4C[C@H](F)C5=CC(=O)C=C[C@]5(C)[C@@]4(F)[C@@H](O)C[C@]3(C)[C@]2(C(=O)CO)O1 [FLUOCINOLONE ACETONIDE],ABSOLUTE BASOPHIL,[1],0 CELLS/uL
same,ABSOLUTE EOSINOPHIL,[1],53 CELLS/uL
same,ABSOLUTE LYMPHOCYTE,[1],3882.67 CELLS/uL
same,ABSOLUTE MONOCYTE,[1],130 CELLS/uL
same,ABSOLUTE SEGMENTED NEUTROPHIL,[1],1667.67 CELLS/uL
same,BASOPHIL,[1],0%
same,EOSINOPHIL,[1],1%
same,ERYTHROCYTE COUNT,[1],5.77 x10E6/uL
same,HEMATOCRIT,[1],37.27%
same,HEMOGLOBIN,[1],13.5 G/DL
same,LEUKOCYTE COUNT,[1],5.73 x10E3/uL
same,LYMPHOCYTE,[1],66%
same,MEAN CORPUSCULAR HEMOGLOBIN,[1],23.4 pg
same,MEAN CORPUSCULAR HEMOGLOBIN CONCENTRATION,[1],36.23 G/DL
same,MEAN CORPUSCULAR VOLUME,[1],64.67 fL
same,MONOCYTE,[1],2.33%
same,NEUTROPHIL,[1],30.67%
same,NUCLEATED RED BLOOD CELLS,[1],0.67 /100WBC
same,PLATELET COUNT,[1],1436 x10E3/uL
same,ALANINE AMINOTRANSFERASE,[1],77.67 u/L
same,ALBUMIN,[1],5.23 G/DL
same,ALKALINE PHOSPHATASE,[1],414.67 u/L
same,ASPARTATE AMINOTRANSFERASE,[1],135.67 u/L
same,BLOOD UREA NITROGEN,[1],21.33 mg/dL
same,CARBON DIOXIDE,[1],24.33 mmol/L
same,CHLORIDE,[1],102 MEQ/L
same,CHOLESTEROL,[1],107 mg/dL
same,CREATINE PHOSPHOKINASE,[1],290 u/L
same,CREATININE,[1],0.31 mg/dL
same,GLUCOSE,[1],275.67 mg/dL
same,LACTATE DEHYDROGENASE,[1],425.33 u/L
same,LIPASE,[1],10.67 u/L
same,PHOSPHORUS,[1],13.03 mg/dL
same,POTASSIUM,[1],5.79 MEQ/L
same,SODIUM,[1],145.07 MEQ/L
same,TOTAL BILIRUBIN,[1],0.27 mg/dL
same,TOTAL PROTEIN,[1],7.07 G/DL
same,URIC ACID,[1],1.47 mg/dL
same,ABSOLUTE BASOPHIL,[2],0 CELLS/uL
same,ABSOLUTE EOSINOPHIL,[2],0 CELLS/uL
same,ABSOLUTE LYMPHOCYTE,[2],1551.33 CELLS/uL
same,ABSOLUTE MONOCYTE,[2],16 CELLS/uL
same,ABSOLUTE SEGMENTED NEUTROPHIL,[2],3699.33 CELLS/uL
same,BASOPHIL,[2],0%
same,EOSINOPHIL,[2],0%
same,ERYTHROCYTE COUNT,[2],6.67 x10E6/uL
same,HEMATOCRIT,[2],40.23%
same,HEMOGLOBIN,[2],14.73 G/DL
same,LEUKOCYTE COUNT,[2],5.27 x10E3/uL
same,LYMPHOCYTE,[2],32%
same,MEAN CORPUSCULAR HEMOGLOBIN,[2],22.1 pg
same,MEAN CORPUSCULAR HEMOGLOBIN CONCENTRATION,[2],36.6 G/DL
same,MEAN CORPUSCULAR VOLUME,[2],60.37 fL
same,MONOCYTE,[2],0.33%
same,NEUTROPHIL,[2],67.67%
same,NUCLEATED RED BLOOD CELLS,[2],1 /100WBC
same,PLATELET COUNT,[2],1631 x10E3/uL
same,ALANINE AMINOTRANSFERASE,[2],131 u/L
same,ALBUMIN,[2],4.93 G/DL
same,ALKALINE PHOSPHATASE,[2],313 u/L
same,ASPARTATE AMINOTRANSFERASE,[2],231.67 u/L
same,BLOOD UREA NITROGEN,[2],20.33 mg/dL
same,CARBON DIOXIDE,[2],24 mmol/L
same,CHLORIDE,[2],102.33 MEQ/L
same,CHOLESTEROL,[2],92.33 mg/dL
same,CREATINE PHOSPHOKINASE,[2],1505.67 u/L
same,CREATININE,[2],0.26 mg/dL
same,GLUCOSE,[2],389.33 mg/dL
same,LACTATE DEHYDROGENASE,[2],225 u/L
same,LIPASE,[2],10 u/L
same,PHOSPHORUS,[2],13.57 mg/dL
same,POTASSIUM,[2],5.94 MEQ/L
same,SODIUM,[2],147.93 MEQ/L
same,TOTAL BILIRUBIN,[2],0.2 mg/dL
same,TOTAL PROTEIN,[2],6.7 G/DL
same,URIC ACID,[2],2.67 mg/dL
same,ABSOLUTE BASOPHIL,[3],0 CELLS/uL
same,ABSOLUTE EOSINOPHIL,[3],0 CELLS/uL
same,ABSOLUTE LYMPHOCYTE,[3],365.67 CELLS/uL
same,ABSOLUTE MONOCYTE,[3],12.67 CELLS/uL
same,ABSOLUTE SEGMENTED NEUTROPHIL,[3],5188.33 CELLS/uL
same,BASOPHIL,[3],0%
same,EOSINOPHIL,[3],0%
same,ERYTHROCYTE COUNT,[3],4.97 x10E6/uL
same,HEMATOCRIT,[3],32.1%
same,HEMOGLOBIN,[3],11.87 G/DL
same,LEUKOCYTE COUNT,[3],5.57 x10E3/uL
same,LYMPHOCYTE,[3],6.67%
same,MEAN CORPUSCULAR HEMOGLOBIN,[3],24.1 pg
same,MEAN CORPUSCULAR HEMOGLOBIN CONCENTRATION,[3],37.03 G/DL
same,MEAN CORPUSCULAR VOLUME,[3],64.97 fL
same,MONOCYTE,[3],0.33%
same,NEUTROPHIL,[3],93%
same,NUCLEATED RED BLOOD CELLS,[3],0.67 /100WBC
same,PLATELET COUNT,[3],1062 x10E3/uL
same,ALANINE AMINOTRANSFERASE,[3],159.67 u/L
same,ALBUMIN,[3],4.33 G/DL
same,ALKALINE PHOSPHATASE,[3],320.67 u/L
same,ASPARTATE AMINOTRANSFERASE,[3],309.33 u/L
same,BLOOD UREA NITROGEN,[3],24.33 mg/dL
same,CARBON DIOXIDE,[3],26 mmol/L
same,CHLORIDE,[3],97 MEQ/L
same,CHOLESTEROL,[3],133 mg/dL
same,CREATINE PHOSPHOKINASE,[3],322 u/L
same,CREATININE,[3],0.18 mg/dL
same,GLUCOSE,[3],463 mg/dL
same,LACTATE DEHYDROGENASE,[3],822 u/L
same,LIPASE,[3],9.67 u/L
same,PHOSPHORUS,[3],10.6 mg/dL
same,POTASSIUM,[3],4.57 MEQ/L
same,SODIUM,[3],142.47 MEQ/L
same,TOTAL BILIRUBIN,[3],0.27 mg/dL
same,TOTAL PROTEIN,[3],5.4 G/DL
same,URIC ACID,[3],1.03 mg/dL
same,ABSOLUTE BASOPHIL,[4],0 CELLS/uL
same,ABSOLUTE EOSINOPHIL,[4],0 CELLS/uL
same,ABSOLUTE LYMPHOCYTE,[4],450 CELLS/uL
same,ABSOLUTE MONOCYTE,[4],219.33 CELLS/uL
same,ABSOLUTE SEGMENTED NEUTROPHIL,[4],11864 CELLS/uL
same,BASOPHIL,[4],0%
same,EOSINOPHIL,[4],0%
same,ERYTHROCYTE COUNT,[4],5.21 x10E6/uL
same,HEMATOCRIT,[4],33.17%
same,HEMOGLOBIN,[4],12.2 G/DL
same,LEUKOCYTE COUNT,[4],12.53 x10E3/uL
same,LYMPHOCYTE,[4],3.67%
same,MEAN CORPUSCULAR HEMOGLOBIN,[4],23.37 pg
same,MEAN CORPUSCULAR HEMOGLOBIN CONCENTRATION,[4],36.87 G/DL
same,MEAN CORPUSCULAR VOLUME,[4],63.37 fL
same,MONOCYTE,[4],1.67%
same,NEUTROPHIL,[4],94.67%
same,NUCLEATED RED BLOOD CELLS,[4],0 /100WBC
same,PLATELET COUNT,[4],587.67 x10E3/uL
same,ALANINE AMINOTRANSFERASE,[4],194 u/L
same,ALBUMIN,[4],3.57 G/DL
same,ALKALINE PHOSPHATASE,[4],289.67 u/L
same,ASPARTATE AMINOTRANSFERASE,[4],380.33 u/L
same,BLOOD UREA NITROGEN,[4],24.33 mg/dL
same,CARBON DIOXIDE,[4],17.67 mmol/L
same,CHLORIDE,[4],95 MEQ/L
same,CHOLESTEROL,[4],90 mg/dL
same,CREATINE PHOSPHOKINASE,[4],1694.33 u/L
same,CREATININE,[4],0.29 mg/dL
same,GLUCOSE,[4],635 mg/dL
same,LACTATE DEHYDROGENASE,[4],429 u/L
same,LIPASE,[4],10 u/L
same,PHOSPHORUS,[4],14.6 mg/dL
same,POTASSIUM,[4],6.12 MEQ/L
same,SODIUM,[4],139.3 MEQ/L
same,TOTAL BILIRUBIN,[4],0.2 mg/dL
same,TOTAL PROTEIN,[4],4.67 G/DL
same,URIC ACID,[4],3.2 mg/dL
